Reference: US20060111436A1, “Compositions and treatments for modulating kinase and/or HMG-CoA reductase” (priority 2004, published 2006)

Legend:
Assay type in all cases: biochemical
[1] = target: T1, human recombinant p38α protein kinase (Homo sapiens, UniProt Q16539); assay: Cell-free p38α MAP kinase modulation assay (phosphorylation of myelin basic protein); conditions: for p38α AC50 / AC50: concentration to activate phosphorylation of myelin basic protein by 50%, ANO = activation not observed at any concentration tested; for IC50 / p38α IC50: concentration to inhibit phosphorylation of myelin basic protein by 50%, INO = inhibition not observed at any concentration tested; for p38α Max % Act: maximum observed increase in p38 MAP kinase activity in presence of compound; for effect on p38α MAP kinase activity, in words: text summary of Table I; for p38α concentration at which maximum increase in activity is observed: value in parentheses in Max % Act
T1 construct: purchased UBI 14-251; host or cells: E. coli
T1 sequence (Q16539 whole entry): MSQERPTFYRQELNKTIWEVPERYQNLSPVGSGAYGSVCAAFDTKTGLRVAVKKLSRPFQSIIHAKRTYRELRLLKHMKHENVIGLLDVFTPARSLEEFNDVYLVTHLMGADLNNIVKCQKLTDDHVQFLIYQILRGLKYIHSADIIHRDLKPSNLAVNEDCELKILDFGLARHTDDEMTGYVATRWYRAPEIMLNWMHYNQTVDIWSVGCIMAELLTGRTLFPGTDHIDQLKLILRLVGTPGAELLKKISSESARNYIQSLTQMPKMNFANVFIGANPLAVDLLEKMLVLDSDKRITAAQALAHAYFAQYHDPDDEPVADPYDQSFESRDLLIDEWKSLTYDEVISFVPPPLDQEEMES
Method: In vitro cell-free p38α MAP kinase modulation assays were conducted by the method as described in Clerk et al., supra, (1998). Briefly, human recombinant p38α protein kinase expressed in E. Coli (UBI #14-251) was used. Myelin basic protein (MBP, UBI #13-110) was employed as substrate, and microtiter plate wells were coated with MBP (0.01 mg/ml) overnight at 4° C. Candidate compound and/or vehicle was preincubated with 0.075 μg/mL enzyme in modified HEPES buffer pH 7.4 at 25° C. for 15 minutes. The reaction was initiated by addition of 100 μM ATP and allowed to proceed for another 60 minutes. The reaction was terminated by aspirating the solution. Phosphorylated MBP was detected by incubation with a mouse monoclonal IgG2a anti-phosphoMBP antibody. Bound anti-phosphoMBP antibody was quantitated by incubation with a HRP conjugated goat anti-mouse IgG.

[2] = target: recombinant human p38β MAP kinase (Homo sapiens, UniProt Q15759); assay: Cell-free p38β MAP kinase modulation assay (phosphorylation of myelin basic protein); conditions: for p38β Max % Act: maximum observed increase in p38 MAP kinase activity in presence of compound; for p38β concentration at which maximum increase in activity is observed: value in parentheses in Max % Act; for AC50: concentration to activate phosphorylation of myelin basic protein by 50%, ANO = activation not observed at any concentration tested; for effect on p38β MAP kinase activity, in words: text summary of Table I
recombinant human p38β MAP kinase, sequence (Q15759 whole entry): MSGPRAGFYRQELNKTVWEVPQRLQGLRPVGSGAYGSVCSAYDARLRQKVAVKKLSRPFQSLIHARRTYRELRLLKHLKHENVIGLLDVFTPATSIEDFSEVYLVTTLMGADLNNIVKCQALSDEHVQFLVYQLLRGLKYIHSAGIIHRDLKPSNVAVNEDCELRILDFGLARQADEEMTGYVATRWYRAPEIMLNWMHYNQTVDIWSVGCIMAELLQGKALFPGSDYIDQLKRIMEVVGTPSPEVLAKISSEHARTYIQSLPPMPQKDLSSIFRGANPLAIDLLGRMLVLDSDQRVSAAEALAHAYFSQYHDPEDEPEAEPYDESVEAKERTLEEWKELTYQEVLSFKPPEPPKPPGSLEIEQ

[3] = target: T2, recombinant human p38δ MAP kinase (Homo sapiens, UniProt O15264); assay: Cell-free p38δ MAP kinase modulation assay (phosphorylation of myelin basic protein); conditions: for AC50: concentration to activate phosphorylation of myelin basic protein by 50%, ANO = activation not observed at any concentration tested; for p38δ Max % Act: maximum observed increase in p38 MAP kinase activity in presence of compound; for effect on p38δ MAP kinase activity, in words: text summary of Table I; for p38δ concentration at which maximum increase in activity is observed: value in parentheses under Max % Act
T2 sequence (O15264 1-365): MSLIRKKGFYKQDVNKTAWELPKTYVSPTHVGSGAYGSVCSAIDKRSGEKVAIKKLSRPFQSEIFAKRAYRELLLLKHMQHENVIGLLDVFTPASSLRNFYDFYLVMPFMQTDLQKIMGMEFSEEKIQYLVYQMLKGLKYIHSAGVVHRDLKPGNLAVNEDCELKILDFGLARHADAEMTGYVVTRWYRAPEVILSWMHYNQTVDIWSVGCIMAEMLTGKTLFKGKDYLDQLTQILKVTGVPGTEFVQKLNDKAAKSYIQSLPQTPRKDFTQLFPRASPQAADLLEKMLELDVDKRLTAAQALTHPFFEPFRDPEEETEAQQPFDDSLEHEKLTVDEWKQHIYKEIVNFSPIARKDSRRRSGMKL

[4] = target: T3, recombinant human p38γ MAP kinase (Homo sapiens, UniProt P53778); assay: Cell-free p38γ MAP kinase modulation assay (phosphorylation of myelin basic protein); conditions: for p38γ Max % Act: maximum observed increase in p38 MAP kinase activity in presence of compound; for effect on p38γ MAP kinase activity, in words: text summary of Table I; for p38γ concentration at which maximum increase in activity is observed: value in parentheses under Max % Act
T3 sequence (P53778 1-367): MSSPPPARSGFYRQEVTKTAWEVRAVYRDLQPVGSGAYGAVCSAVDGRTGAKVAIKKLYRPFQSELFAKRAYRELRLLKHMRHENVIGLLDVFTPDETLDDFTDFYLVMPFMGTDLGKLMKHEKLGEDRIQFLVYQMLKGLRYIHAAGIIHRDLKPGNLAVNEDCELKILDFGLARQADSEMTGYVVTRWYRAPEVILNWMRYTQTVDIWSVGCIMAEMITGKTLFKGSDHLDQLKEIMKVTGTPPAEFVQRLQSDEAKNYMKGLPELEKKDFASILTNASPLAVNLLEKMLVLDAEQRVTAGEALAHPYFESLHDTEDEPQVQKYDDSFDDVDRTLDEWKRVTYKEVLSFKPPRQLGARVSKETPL

[5] = concentration to inhibit phosphorylation of myelin basic protein by 50%, INO = inhibition not observed at any concentration tested
[6] = concentration to activate phosphorylation of myelin basic protein by 50%, ANO = activation not observed at any concentration tested

p38β Max % Act [2] [%]	p38β concentration at which maximum increase in activity is observed [2] [µM]	AC50 [3] [µM]	p38δ Max % Act [3] [%]	effect on p38δ MAP kinase activity, in words [3]	p38δ concentration at which maximum increase in activity is observed [3]	AC50 [4, 6] [µM]	p38γ Max % Act [4] [%]	effect on p38γ MAP kinase activity, in words [4]	p38γ concentration at which maximum increase in activity is observed [4]	p38γ IC50 [4, 5]	Compound	p38α AC50 [1]	IC50 [1] [µM]	further results
											CC(C)c1c(C(=O)Nc2ccccc2)c(-c2ccccc2)c(-c2ccc(F)cc2)n1CC[C@@H](O)C[C@@H](O)CC(=O)[O-].CC(C)c1c(C(=O)Nc2ccccc2)c(-c2ccccc2)c(-c2ccc(F)cc2)n1CC[C@@H](O)C[C@@H](O)CC(=O)[O-].[Ca+2] [Atorvastatin calcium, atorvastatin calcium, reference compound]	ANO^d		
											COCc1c(C(C)C)nc(C(C)C)c(C=CC(O)CC(O)CC(=O)[O-])c1-c1ccc(F)cc1.COCc1c(C(C)C)nc(C(C)C)c(C=CC(O)CC(O)CC(=O)[O-])c1-c1ccc(F)cc1.[Ca+2] (centres unmarked) [Cerivastatin calcium, reference compound]	ANO	> 30	
143	10	~8	158	can activate	(100 μM)	~5	115	can activate	(100 μM)	INO	COCc1c(C(C)C)nc(C(C)C)c(/C=C/[C@@H]2C[C@@H](O)CC(=O)O2)c1-c1ccc(F)cc1 [Cerivastatin lactone, cerivastatin lactone]			AC50 [1]: ~10 µM; p38α IC50 [1]: INO; p38α Max % Act [1]: 76%; effect on p38α MAP kinase activity, in words [1]: can activate; p38α concentration at which maximum increase in activity is observed [1]: 100 µM; AC50 [2]: ~5 µM; p38β IC50 [2, 5]: INO; effect on p38β MAP kinase activity, in words [2]: can activate; p38δ IC50 [3, 5]: INO
											CC(C)n1c(/C=C/C(O)CC(O)CC(=O)O)c(-c2ccc(F)cc2)c2ccccc21 (centres unmarked) [Fluvastatin sodium, fluvastatin sodium, reference compound]	ANO		
											CC(C)c1nc(N(C)S(C)(=O)=O)nc(-c2ccc(F)cc2)c1/C=C/[C@@H](O)C[C@@H](O)CC(=O)O [Rosuvastatin sodium, reference compound]	ANO		
185	100	~2	611	can activate	(100 μM)	3 to 10	127	can activate	(100 μM)	INO	CCC(C)(C)C(=O)O[C@H]1C[C@@H](C)C=C2C=C[C@H](C)[C@H](CC[C@@H]3C[C@@H](O)CC(=O)O3)[C@H]21 [Simvastatin lactone, simvastatin lactone]			AC50 [1]: ~20 µM; p38α IC50 [1]: INO^e; p38α Max % Act [1]: 207%; effect on p38α MAP kinase activity, in words [1]: can activate; p38α concentration at which maximum increase in activity is observed [1]: 100 µM; AC50 [2]: ~15 µM; p38β IC50 [2, 5]: INO; effect on p38β MAP kinase activity, in words [2]: can activate; p38δ IC50 [3, 5]: INO

Compound	p38β Max % Act [2] [%]	p38β concentration at which maximum increase in activity is observed [2] [µM]	AC50 [3] [µM]	p38δ Max % Act [3] [%]	effect on p38δ MAP kinase activity, in words [3]	p38δ concentration at which maximum increase in activity is observed [3]	AC50 [4, 6] [µM]	p38γ Max % Act [4] [%]	effect on p38γ MAP kinase activity, in words [4]	p38γ concentration at which maximum increase in activity is observed [4]	p38γ IC50 [4, 5]	p38α AC50 [1]	IC50 [1] [µM]	further results
CC(C)c1c(C(=O)Nc2ccccc2)c(-c2ccccc2)c(-c2ccc(F)cc2)n1CC[C@@H]1C[C@@H](O)CC(=O)O1 [Atorvastatin lactone, atorvastatin lactone]	19	10	30 to 100	112	showed both inhibitory and activation activities	(30 μM)	~10	62	showed both inhibitory and activation activities	(10 μM)		ANO	31	IC50 [2, 5]: 94 µM; IC50 [3, 5]: 83 µM; p38δ Max % Act ([3]; listed as atorvastatin lacton): about 112%; IC50 [4, 5]: ~50 µM
O=C([O-])C[C@H](O)C[C@H](O)/C=C/c1c(C2CC2)nc2ccccc2c1-c1ccc(F)cc1.O=C([O-])C[C@H](O)C[C@H](O)/C=C/c1c(C2CC2)nc2ccccc2c1-c1ccc(F)cc1.[Ca+2] [Pitavastatin calcium, reference compound]											INO	ANO	101	p38γ AC50 [4, 6]: ANO
